From article PMC3923314 (Biomacromolecules, 2013)

How the values were obtained:
[1] = tested on: normal rat striatum; assay: Convection-enhanced delivery; assay type: in vivo; conditions: CED, 20 μl, DOX 0.2 mg/ml, Sprague Dawley rats, a week after infusion
[2] = after injection of free DOX; cited from earlier work

COc1cccc2c1C(=O)c1c(O)c3c(c(O)c1C2=O)C[C@@](O)(C(=O)CO)C[C@@H]3O[C@H]1C[C@H](N)[C@H](O)[C@H](C)O1 [free DOX, doxorubicin]
toxicity to brain tissue (H&E staining) [1]: significant tissue damage
clearance time from blood circulation [2]: tens of minutes
